Measured values published in US20090047243A1, “COMBINATIONS FOR THE TREATMENT OF B-CELL PROLIFERATIVE DISORDERS” (priority 2007, published 2009).
Counter-ions that a name gives are not always drawn.

Legend:
patient CLL cells = assay: Apoptosis assay (Hoechst 33342, flow cytometry, 48 h); assay type: cell-based, human; parameters: unit not given here; settings: CGS-21680 0 μM
Text: Blood samples were obtained in heparinized tubes with IRB-approved consent from flow cytometry-confirmed B-CLL patients that were either untreated or for whom at least 1 month had elapsed since chemotherapy. Patients with active infections or other serious medical conditions were not included in this study. Patients with white blood cell counts of less than 15,000/μl by automated analysis were excluded from this study. Whole blood was layered on Ficoll-Hystopaque (Sigma), and peripheral blood mononuclear cells (PBMC) isolated after centrification. […] One million cells were stained with anti-CD5-PE and anti-CD19-PE-Cy5 (Becton Dickenson, Franklin Lakes N.J.). The percentage of B-CLL cells was defined as the percentage of cells doubly expressing CD5 and CDl9, as determined by flow cytometry. […] Compound master plates were diluted 1:50 into complete media to create working compound dilutions. Compound crosses were then created by diluting two working dilution plates 1:10 into each plate of cells. […] Hoechst 33342 (Molecular Probes, Eugene Oreg.) at a final concentration of 0.25 μg/1 mL was added to each well, and the cells incubated at 37° C. for an additional ten minutes before being placed on ice until analysis. Plates were then analyzed on a LSR-II flow cytometer (Becton Dickenson, Franklin Lakes, N.J.) equipped with the High Throughput Sampling (HTS) option in high throughput mode. […] The apoptotic fraction was calculated using FlowJo software (Tree Star Inc., Ashland, Oreg.) after excluding debris by a FSC/SSC gate and subsequently gating for cells that accumulate the Hoechst dye.

INA-6 MM cell line = assay: Anti-proliferation assay (ATPLite, 72 h); assay type: cell-based, human; settings: CGS-21680 × PDE inhibitor
Protocol: (§1) ANBL6 and INA-6 culture media was also supplemented with 10 ng/ml IL-6. […] MM.1S, MM.1R, OCI-ly10, Karpas 422, and SU-DHL6 cells were provided by the Dana Farber Cancer Institute. H929, RPMI-8226, GA-10, and Farage cells were from ATCC (Cat #'s CCL-155, CRL-9068, CRL-2392 and CRL-2630 respectively). MOLP-8, EJM, KSM-12-PE, and OPM2 were from DSMZ. The ANBL6 and INA-6 cell lines were provided by the M. D. Anderson Cancer Research Center. Compounds were prepared in DMSO at 1000× the highest desired concentration. Master plates were generated consisting of serially diluted compounds in 2- or 3-fold dilutions in 384-well format. For single agent dose response curves, the master plates consisted of 9 individual compounds at 12 concentrations in 2- or 3-fold dilutions. For combination matrices, master plates consisted of individual compounds at 6 or 9 concentrations at 2- or 3-fold dilutions. […] To obtain combination data, two master plates were diluted into the assay plates. […] Thirty microliters of ATPLite (Perkin Elmer) at room temperature was then added to each well. […] Measurements were taken at the top of the well using a luminescence aperture and a read time of 0.1 seconds per well. The percent inhibition (% I) for each well was calculated using the following formula: % I=[(avg. untreated wells-treated well)/(avg. untreated wells)]×100. […] Negative inhibition values result from local variations in treated wells as compared to untreated wells. […] The uncertainty of each fitted parameter was estimated from the range over which the change in reduced chi-squared was less than one, or less than minimum reduced chi-squared if that minimum exceeded one, to allow for underestimated σI errors. Single agent curve data were used to define a dilution series for each compound to be used for combination screening in a 6×6 matrix format. […] The Loewe additivity model was used to quantify combination effects. […] A “Synergy Score” was also used, where the Synergy Score S=log fX log fY ΣIdata(Idata-ILoewe), summed over all non-single-agent concentration pairs, and where log fX,Y is the natural logarithm of the dilution factors used for each single agent. This effectively calculates a volume between the measured and Loewe additive response surfaces, weighted towards high inhibition and corrected for varying dilution factors. An uncertainty σS was calculated for each synergy score, based on the measured errors for the Idata values and standard error propagation.

KSM-12-PE MM cell line = assay: Anti-proliferation assay (ATPLite, 72 h); assay type: cell-based, human; settings: CGS-21680 × PDE inhibitor
Protocol: as §1

A2A receptor = A2A receptor (Homo sapiens, UniProt P29274); settings: cited from earlier work
Chain of A2A receptor (P29274 whole entry): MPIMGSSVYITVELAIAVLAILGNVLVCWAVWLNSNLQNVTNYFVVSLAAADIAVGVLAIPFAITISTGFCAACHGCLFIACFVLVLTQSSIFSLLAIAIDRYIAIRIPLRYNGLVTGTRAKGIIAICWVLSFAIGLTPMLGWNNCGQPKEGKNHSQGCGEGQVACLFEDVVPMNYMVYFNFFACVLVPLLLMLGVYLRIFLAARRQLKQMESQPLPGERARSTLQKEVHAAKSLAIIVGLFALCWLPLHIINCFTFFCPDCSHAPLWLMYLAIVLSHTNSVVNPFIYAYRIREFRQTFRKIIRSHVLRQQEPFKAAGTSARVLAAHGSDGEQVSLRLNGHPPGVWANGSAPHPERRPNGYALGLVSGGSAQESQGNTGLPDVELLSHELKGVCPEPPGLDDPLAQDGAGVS

COc1cc2c(cc1OC)-c1cc(=Nc3c(C)cc(C)cc3C)n(C)c(=O)n1CC2 [Trequinsin hydrochloride, 2,3,6,7-tetrahydro-9,10-dimethoxy-3-methyl-2-((2,4,6-trimethylphenyl)imino)-4H-pyrimido(6,1-a)isoquinolin-4-one]
Induction of apoptosis (patient CLL cells; Trequinsin 0.22 μM): 8.9 | Induction of apoptosis (patient CLL cells; Trequinsin 2 μM): 19 | Induction of apoptosis (patient CLL cells; Trequinsin […]): 9.9 | synergy score (INA-6 MM cell line): 3.93 | synergy score (KSM-12-PE MM cell line): 2.44

CCCCC#Cc1nc(N)c2ncn([C@@H]3O[C@H](C(=O)NCC)[C@@H](O)[C@H]3O)c2n1 [HE-NECA, hexynyladenosine-5′-N-ethylcarboxamide]
Ki (A2A receptor): ~27 nM

COc1cc(-c2ccc(=O)[nH]n2)ccc1OC(F)F [Zardaverine, 6-(4-(difluoromethoxy)-3-methoxyphenyl)-3(2H)-Pyridazinone]
synergy score (INA-6 MM cell line): 2.69 | synergy score (KSM-12-PE MM cell line): 0.49
